This note sets out measurements from ChEMBL document CHEMBL2157955, “Design, synthesis and anticancer activity of 1-acyl-3-amino-1,4,5,6-tetrahydropyrrolo[3,4-c]pyrazole derivatives” (Bioorg Med Chem Lett, 2012).

Usually IC50 stands for the concentration at which inhibition is half-maximal. Low values mean greater potency, high ones weaker potency. The term inhibition denotes the change of the read-out against control, counted positive when it falls. Low readings indicate little suppression, high ones strong suppression.

Bounds are passed on as bounds.

Test [1] deals with HCT-116. Put plainly: Cytotoxicity against human HCT116 cells after 48 hrs by SRB assay. The class given is functional, cell-based. Particulars: HCT-116, 48 h. In general terms: The SRB assay estimates cell density from bound dye.
Test [2] deals with HepG2. As to the kind of experiment: Cytotoxicity against human HepG2 cells after 48 hrs by SRB assay. The class given is functional, cell-based. Particulars: HepG2, 48 h.
Test [3] concerns HT-1080. As to the kind of experiment: Cytotoxicity against human HT1080 cells after 48 hrs by SRB assay. Type of test: functional, cell-based. Particulars: HT-1080, 48 h.
Test [4] deals with HT-29. As to the kind of experiment: Cytotoxicity against human HT-29 cells after 48 hrs by SRB assay. The class given is functional, cell-based. Particulars: HT-29, 48 h.
For test [5], the system named is MCF7. As to the kind of experiment: Cytotoxicity against human MCF7 cells after 48 hrs by SRB assay. Type of test: functional, cell-based. Particulars: MCF7, 48 h.
Test [6] in a line: Cytotoxicity against human L02 cells after 48 hrs by SRB assay. Particulars: L02, 48 h. The class given is cell-based.
Test [7] concerns A549. Put plainly: Cytotoxicity against human A549 cells after 48 hrs by SRB assay. Type of test: functional, cell-based. Particulars: A549, 48 h.
Test [8] deals with Epidermal growth factor receptor (Homo sapiens) (UniProt P00533). As to the kind of experiment: Inhibition of human EGFR at 10 uM.
Chain of Epidermal growth factor receptor (Homo sapiens) (P00533 whole entry): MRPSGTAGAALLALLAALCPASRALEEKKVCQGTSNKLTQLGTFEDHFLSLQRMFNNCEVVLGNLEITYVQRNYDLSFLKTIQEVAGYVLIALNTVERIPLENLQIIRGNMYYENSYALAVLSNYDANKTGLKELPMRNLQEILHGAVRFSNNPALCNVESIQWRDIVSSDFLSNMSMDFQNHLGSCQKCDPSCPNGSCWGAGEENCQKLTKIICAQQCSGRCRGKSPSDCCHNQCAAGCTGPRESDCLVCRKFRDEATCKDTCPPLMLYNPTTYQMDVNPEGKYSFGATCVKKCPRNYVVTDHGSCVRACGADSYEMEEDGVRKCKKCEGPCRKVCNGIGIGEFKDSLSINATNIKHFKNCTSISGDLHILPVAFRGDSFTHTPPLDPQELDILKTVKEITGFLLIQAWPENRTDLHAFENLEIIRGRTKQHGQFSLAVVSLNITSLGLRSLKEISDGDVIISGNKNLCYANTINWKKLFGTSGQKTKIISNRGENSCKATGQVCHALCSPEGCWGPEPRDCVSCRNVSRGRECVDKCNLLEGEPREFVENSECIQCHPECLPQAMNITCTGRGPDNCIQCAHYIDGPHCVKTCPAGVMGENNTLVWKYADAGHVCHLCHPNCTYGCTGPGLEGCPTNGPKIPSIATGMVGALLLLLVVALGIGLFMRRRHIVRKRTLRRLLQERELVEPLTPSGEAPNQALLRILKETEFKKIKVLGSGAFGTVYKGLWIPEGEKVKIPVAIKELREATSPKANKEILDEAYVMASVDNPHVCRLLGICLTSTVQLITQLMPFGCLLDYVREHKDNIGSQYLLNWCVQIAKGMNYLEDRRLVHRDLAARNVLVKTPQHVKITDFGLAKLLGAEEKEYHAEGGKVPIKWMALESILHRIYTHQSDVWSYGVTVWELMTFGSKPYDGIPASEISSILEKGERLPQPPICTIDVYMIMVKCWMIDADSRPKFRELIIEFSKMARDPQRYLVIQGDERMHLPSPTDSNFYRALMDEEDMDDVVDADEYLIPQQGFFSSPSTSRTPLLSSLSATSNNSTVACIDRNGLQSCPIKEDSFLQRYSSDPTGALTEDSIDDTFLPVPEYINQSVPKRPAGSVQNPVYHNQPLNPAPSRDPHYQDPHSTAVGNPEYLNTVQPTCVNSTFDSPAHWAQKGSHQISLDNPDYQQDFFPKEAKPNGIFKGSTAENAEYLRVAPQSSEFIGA
For test [9], the target named is Serine/threonine-protein kinase mTOR (Homo sapiens) (UniProt P42345). Put plainly: Inhibition of human mTOR at 10 uM.
For test [10], the target named is Cyclin-dependent kinase 2/cyclin E (Homo sapiens) (UniProt P24864+P24941+O96020). Put plainly: Inhibition of human CDK2/cyclin E at 10 uM. The class given is protein-complex assay.
The target in test [11] is Cyclin-dependent kinase 2/cyclin A (Homo sapiens) (UniProt P24941+P20248+P78396). Put plainly: Inhibition of human CDK2/cyclin A at 10 uM. The class given is protein-complex assay.
The target of test [12] is CDK9/cyclin T1 (Homo sapiens) (UniProt O60563+P50750). Put plainly: Inhibition of human CDK9/CyclinT1 at 10 uM. Type of test: protein-complex assay.
Test [13] has as its system A549. As to the kind of experiment: Ratio of (R)-roscovitine IC50 to compound IC50 for human A549 cells. Type of test: functional.
The test system of test [14] is MCF7. As to the kind of experiment: Ratio of (R)-roscovitine IC50 to compound IC50 for human MCF7 cells. The class given is functional.
In test [15] the test system is HCT-116. As to the kind of experiment: Ratio of (R)-roscovitine IC50 to compound IC50 for human HCT116 cells. Type of test: functional.
Test [16] addresses T1, Aurora kinase A (Homo sapiens) (UniProt O14965).
T1 sequence (whole entry): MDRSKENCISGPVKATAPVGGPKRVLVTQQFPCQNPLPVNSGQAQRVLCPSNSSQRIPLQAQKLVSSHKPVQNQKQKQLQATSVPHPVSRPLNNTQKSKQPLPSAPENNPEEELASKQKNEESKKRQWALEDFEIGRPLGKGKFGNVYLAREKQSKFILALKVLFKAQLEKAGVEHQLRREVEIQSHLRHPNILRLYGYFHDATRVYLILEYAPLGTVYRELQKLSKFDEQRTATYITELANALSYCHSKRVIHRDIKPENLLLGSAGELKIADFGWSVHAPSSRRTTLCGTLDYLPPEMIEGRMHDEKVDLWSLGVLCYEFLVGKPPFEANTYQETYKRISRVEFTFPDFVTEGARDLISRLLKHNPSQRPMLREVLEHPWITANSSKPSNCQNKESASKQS
Put plainly: Inhibition of human Aurora A kinase at 10 uM.

Test [17] concerns the target Cyclin-dependent kinase 5/CDK5 activator 1 (Homo sapiens) (UniProt Q00535+Q15078). Put plainly: Inhibition of human CDK5/p25 at 10 uM. The class given is protein-complex assay.
Test [18] concerns the target Glycogen synthase kinase-3 beta (Homo sapiens) (UniProt P49841). As to the kind of experiment: Inhibition of human GSK3beta at 10 uM.
Test [19] concerns HT-1080. As to the kind of experiment: Ratio of (R)-roscovitine IC50 to compound IC50 for human HT1080 cells. Type of test: functional.
The target of test [20] is Cyclin-dependent kinase 7/ cyclin H (Homo sapiens) (UniProt P51946+P50613). As to the kind of experiment: Inhibition of human CDK7/CyclinH/MAT1 at 10 uM. The class given is protein-complex assay.
The subject of test [21] is HepG2. Put plainly: Ratio of (R)-roscovitine IC50 to compound IC50 for human HepG2 cells. Type of test: functional.
Test [22] addresses Cyclin-dependent kinase 1/cyclin B1 (Homo sapiens) (UniProt P06493+P14635). As to the kind of experiment: Inhibition of human CDK1/cyclinB at 10 uM. Type of test: protein-complex assay.
Test [23] deals with Aurora kinase B (Homo sapiens) (UniProt Q96GD4). As to the kind of experiment: Inhibition of human Aurora B kinase at 10 uM.
Chain of Aurora kinase B (Homo sapiens) (Q96GD4 whole entry): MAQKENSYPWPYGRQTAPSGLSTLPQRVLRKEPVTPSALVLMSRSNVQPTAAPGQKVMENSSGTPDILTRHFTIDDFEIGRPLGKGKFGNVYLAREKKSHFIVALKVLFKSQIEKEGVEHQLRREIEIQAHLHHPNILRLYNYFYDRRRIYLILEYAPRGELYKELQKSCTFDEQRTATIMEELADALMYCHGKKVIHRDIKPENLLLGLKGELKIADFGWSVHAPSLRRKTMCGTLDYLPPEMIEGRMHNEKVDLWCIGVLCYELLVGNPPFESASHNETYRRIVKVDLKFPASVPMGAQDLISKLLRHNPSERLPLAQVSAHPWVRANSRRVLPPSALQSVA
The subject of test [24] is HT-29. As to the kind of experiment: Ratio of (R)-roscovitine IC50 to compound IC50 for human HT-29 cells. Type of test: functional.

Chain of Cyclin-dependent kinase 5/CDK5 activator 1 (Homo sapiens) (Q00535 whole entry): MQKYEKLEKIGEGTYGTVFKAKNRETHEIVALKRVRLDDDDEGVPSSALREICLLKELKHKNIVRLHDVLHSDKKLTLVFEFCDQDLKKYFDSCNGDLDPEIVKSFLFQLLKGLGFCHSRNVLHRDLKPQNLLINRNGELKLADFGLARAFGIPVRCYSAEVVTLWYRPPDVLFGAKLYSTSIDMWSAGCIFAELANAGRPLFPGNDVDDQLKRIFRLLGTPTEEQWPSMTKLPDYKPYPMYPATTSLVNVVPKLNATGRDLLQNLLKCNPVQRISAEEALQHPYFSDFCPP
Chain of Cyclin-dependent kinase 5/CDK5 activator 1 (Homo sapiens) (Q15078 99-307 partner limits assumed): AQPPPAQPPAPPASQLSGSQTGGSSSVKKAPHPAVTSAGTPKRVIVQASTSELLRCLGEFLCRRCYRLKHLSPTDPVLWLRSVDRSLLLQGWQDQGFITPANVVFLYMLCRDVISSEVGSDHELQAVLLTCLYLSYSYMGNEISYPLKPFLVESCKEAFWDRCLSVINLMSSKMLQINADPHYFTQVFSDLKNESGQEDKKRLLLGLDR
Chain of Cyclin-dependent kinase 1/cyclin B1 (Homo sapiens) (P06493 whole entry, looked up): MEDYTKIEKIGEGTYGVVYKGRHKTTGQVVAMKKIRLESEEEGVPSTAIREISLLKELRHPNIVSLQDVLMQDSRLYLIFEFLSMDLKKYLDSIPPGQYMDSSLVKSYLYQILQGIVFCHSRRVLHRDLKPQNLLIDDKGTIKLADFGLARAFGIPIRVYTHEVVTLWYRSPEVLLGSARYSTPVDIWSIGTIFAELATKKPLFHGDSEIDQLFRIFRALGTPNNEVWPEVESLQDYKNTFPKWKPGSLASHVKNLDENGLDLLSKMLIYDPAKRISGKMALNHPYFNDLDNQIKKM
Chain of Cyclin-dependent kinase 1/cyclin B1 (Homo sapiens) (P14635 whole entry, looked up): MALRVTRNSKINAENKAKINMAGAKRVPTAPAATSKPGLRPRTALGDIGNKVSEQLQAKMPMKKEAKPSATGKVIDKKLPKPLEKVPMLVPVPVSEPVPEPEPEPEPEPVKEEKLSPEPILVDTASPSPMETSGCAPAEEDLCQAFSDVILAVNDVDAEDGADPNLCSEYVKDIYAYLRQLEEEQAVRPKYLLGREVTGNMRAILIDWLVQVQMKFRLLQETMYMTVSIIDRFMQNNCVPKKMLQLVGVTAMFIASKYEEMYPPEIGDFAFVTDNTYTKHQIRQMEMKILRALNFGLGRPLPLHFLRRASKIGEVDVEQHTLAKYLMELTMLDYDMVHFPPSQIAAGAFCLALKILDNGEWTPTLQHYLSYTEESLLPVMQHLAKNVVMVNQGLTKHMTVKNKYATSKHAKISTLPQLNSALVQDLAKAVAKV
Chain of Glycogen synthase kinase-3 beta (Homo sapiens) (P49841 whole entry, looked up): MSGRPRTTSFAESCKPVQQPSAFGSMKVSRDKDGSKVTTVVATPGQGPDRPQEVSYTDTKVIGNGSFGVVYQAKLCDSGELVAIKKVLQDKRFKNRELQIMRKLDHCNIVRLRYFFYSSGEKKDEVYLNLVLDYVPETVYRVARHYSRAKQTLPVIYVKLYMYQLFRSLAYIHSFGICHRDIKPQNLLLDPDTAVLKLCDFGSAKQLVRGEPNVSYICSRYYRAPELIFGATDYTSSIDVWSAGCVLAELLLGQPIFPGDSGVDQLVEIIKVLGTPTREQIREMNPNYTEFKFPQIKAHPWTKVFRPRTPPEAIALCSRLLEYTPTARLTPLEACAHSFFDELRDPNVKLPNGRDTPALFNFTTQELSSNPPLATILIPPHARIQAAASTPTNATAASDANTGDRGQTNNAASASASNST

In [1], `CC(=O)n1nc(NC(=O)c2ccccc2)c2c1CN(S(=O)(=O)N(C)C)C2` showed an IC50 of 35.3 µM. Consider `CC[C@H](CO)Nc1nc(NCc2ccccc2)c2ncn(C(C)C)c2n1` [SELICICLIB], for which the IC50 amounted to 15500 nM in [2]; 9.62 µM in test [3]; 11600 nM in test [4]; 12200 nM in test [5]; 16.4 µM in test [1]; 20500 nM in test [6]. For the same compound, the IC50 in [7] stood at 14.1 µM. For the compound `CCCCNC(=O)N1Cc2c(NC(=O)c3ccc(C)cc3)nn(C(=O)c3ccccc3)c2C1`, the IC50 in [1] was determined as 23.2 µM.

In turn, `CC(=O)n1nc(NC(=O)c2ccccc2)c2c1CN(C(=O)c1cccc([N+](=O)[O-])c1)C2` gave an IC50 in test [1] of 17.3 µM. Still for that read-out and setting: the same measure for `CC(=O)n1nc(NC(=O)c2ccccc2)c2c1CN(C(=O)c1cccc(Cl)c1)C2`: 17.4 µM. On to `CCC(=O)n1nc(NC(=O)c2ccccc2)c2c1CN(C(=O)c1ccccc1)C2`, for which the IC50 in [2] was found to be 860 nM; in test [4] it was 910 nM; in test [5], 1070 nM; in [1] it was 1.06 µM; in test [6], 2470 nM. As to `CCCCNC(=O)N1Cc2c(NC(=O)c3ccccc3)nn(C(=O)c3ccccc3)c2C1`, in test [1], the IC50 stood at 7.47 µM. On to `CC(=O)n1nc(NC(=O)c2ccccc2)c2c1CN(S(=O)(=O)c1ccc([N+](=O)[O-])cc1)C2`, for which half-maximal inhibition in test [1] (IC50) was put at 22.3 µM. Take `COc1ccc(C(=O)Nc2nn(C(=O)C3CC3)c3c2CN(C(=O)c2ccccc2)C3)cc1`: the IC50 in test [1] amounted to 5.18 µM. Compound `O=C(Nc1nn(C(=O)Cc2ccccc2)c2c1CN(C(=O)c1ccccc1)C2)c1ccccc1` showed an IC50 in [1] of 2.61 µM. This IC50 lies about 2-fold lower than the previous one. The same measure, in the same setting: the same measure for `O=C(Nc1nn(C(=O)C2CC2)c2c1CN(C(=O)c1ccccc1)C2)c1ccc(F)cc1`: 2.28 µM; for `CCCCNC(=O)N1Cc2c(NC(=O)c3ccc(OC)cc3)nn(C(=O)c3ccccc3)c2C1`: 25.3 µM. Compound `O=C(Nc1nn(C(=O)c2ccccc2)c2c1CN(C(=O)c1ccccc1)C2)c1ccc(F)cc1` came in with a 50% inhibitory concentration (IC50) in [1] of 2.78 µM. Still for that read-out and setting: the same measure for `CCCCNC(=O)N1Cc2c(NC(=O)c3ccc(F)cc3)nn(C(=O)c3ccccc3)c2C1`: 30.8 µM; for `CCCCNC(=O)N1Cc2c(NC(=O)Cc3ccccc3)nn(C(=O)c3ccccc3)c2C1`: 43.1 µM; for `CCCCNC(=O)N1Cc2c(NC(=O)Cc3ccccc3)nn(C(=O)C3CC3)c2C1`: 31.2 µM. Same read-out and setting: the same measure for `CC(=O)n1nc(NC(=O)c2ccccc2)c2c1CN(C(=O)C1CCC(C)CC1)C2` (stereo not drawn): 12.2 µM. Regarding `CCCCNC(=O)N1Cc2c(NC(=O)c3ccc(F)cc3)nn(C(=O)C3CC3)c2C1`, in test [1], inhibition was half-maximal at 23.2 µM (IC50). The same measure, in the same setting: the same measure for `CC(=O)n1nc(NC(=O)c2ccccc2)c2c1CN(C(=O)c1ccncc1)C2`: 10 µM; for `CC(=O)n1nc(NC(=O)c2ccccc2)c2c1CN(C(=O)c1ccc([N+](=O)[O-])cc1)C2`: 16.2 µM; for `CCCCNC(=O)N1Cc2c(NC(=O)c3ccc(C)cc3)nn(C(=O)C3CC3)c2C1`: 17.6 µM.

Take `O=C(Nc1nn(C(=O)c2ccccc2)c2c1CN(C(=O)c1ccccc1)C2)c1ccccc1`: in test [1], half-maximal inhibition (IC50) was put at 1.4 µM. The same measure, in the same setting: then `CC(=O)n1nc(NC(=O)c2ccccc2)c2c1CN(C(=O)N(C)C)C2`, with 70.3 µM; and `CC(=O)n1nc(NC(=O)c2ccccc2)c2c1CN(C(=O)c1cccc(F)c1)C2`, with 21.9 µM; and `O=C(Nc1nn(C(=O)C2CC2)c2c1CN(C(=O)c1ccccc1)C2)c1ccccc1`, with 1.24 µM. Same read-out and setting: the same measure for `CC(C)C(=O)n1nc(NC(=O)c2ccccc2)c2c1CN(C(=O)c1ccccc1)C2`: 2.02 µM; for `CC(=O)n1nc(NC(=O)c2ccccc2)c2c1CN(C(=O)c1ccc(-c3ccccc3)cc1)C2`: greater than 90 µM; for `CC(=O)n1nc(NC(=O)c2ccccc2)c2c1CN(C(=O)CCl)C2`: 4.1 µM. The same measure, in the same setting: then `O=C(Nc1n[nH]c2c1CN(C(=O)c1ccccc1)C2)c1ccccc1`, with 6.4 µM. In turn, `CCCCNC(=O)N1Cc2c(NC(=O)c3ccccc3)nn(C(=O)C3CC3)c2C1` showed an IC50 in test [1] of 3.47 µM. Same read-out and setting: the same measure for `CCCCNC(=O)N1Cc2c(NC(=O)c3ccc(OC)cc3)nn(C(=O)C3CC3)c2C1`: 65.5 µM. Turning to `CC(=O)n1nc(NC(=O)c2ccccc2)c2c1CN(C(=O)c1ccccc1)C2`, the inhibition in test [8] is 8%; in [9] it was 3%; in [10], 30%; in test [11] it was 17%; in test [12], 10%; in test [16] it was 33%. Besides, the inhibition amounted to 72% in test [17]; 67% in test [18]; 5% in test [20]; 30% in [22]; 32% in test [23]. Also, the IC50 in [2] was 810 nM; in test [3] it was 2.13 µM; in test [4] it was 920 nM; in test [5] it was 990 nM; in test [1], 0.58 µM; in test [6], 2220 nM. The compound further came in with an IC50 in test [7] of 1.74 µM. The “Ratio IC50” value in [13] is on record as 4; in [14] it was 4; in [15], 28; in test [19], 4; in test [21], 4; in test [24], 4. As to `O=C(Nc1n[nH]c2c1CN(C(=O)c1ccccc1)C2)c1ccc(F)cc1`, in [1], the midpoint of inhibition, the IC50, lay at 3.19 µM.

`COc1ccc(C(=O)Nc2n[nH]c3c2CN(C(=O)c2ccccc2)C3)cc1` yielded a 50% inhibitory concentration (IC50) in [1] of 13.6 µM.

Consider `COc1ccc(C(=O)Nc2nn(C(=O)c3ccccc3)c3c2CN(C(=O)c2ccccc2)C3)cc1`, for which, in [1], it took 31.3 µM to reach half-maximal inhibition (IC50). This IC50 is about 2.3-fold higher than that of the compound before.
